The source of these data is patent US20100197740A1, “Method of Screening Compounds Having Anti-Amyloid Properties” (LES LABORATOIRES SERVIER, priority 2006, published 2010).

Test [1] concerns the target T1, Aβ42-α7 nAChR complexes (Homo sapiens, UniProt P36544).
T1 construct: dissociation of the complexes already present in the diseased human tissues; tissue Harvard Brain Tissue Resource Center and Analytical Biological Services; host or cells: post-mortem frontal cortex synaptosomes of Alzheimer's disease patients
The test can be described thus: Inhibition of formation of Aβ42-α7 nAChR complexes in post-mortem frontal cortex synaptosomes (immunoprecipitation, Western blot). The format is binding. The settings on record: S 24795 30 μM added before Aβ peptides (Aβ42 100 nM); non-diseased control human cortex synaptosomes. The procedure:
FIG. 1: Western blot illustrating the inhibition, by S 24795, of Aβ42-α7 nAChR complexes obtained post-mortem from frontal cortex synaptosomes of Alzheimer's disease patients or control subjects. The Aβ42-α7 nAChR complexes are incubated in the medium (Krebs-Ringer) on its own or in the presence of S 24795 (30 μM) for 10 minutes, followed by incubation in the presence of Aβ42 peptide for 30 minutes.
FIG. 2: Quantification of the inhibition of the formation of Aβ42-α7 nAChR complexes in human frontal cortex synaptosomes obtained post-mortem from Alzheimer's disease patients and control subjects and incubated with S 24795 (30 μM)—or not—and then with Aβ42 peptides (100 nM). *: p<0.01 for controls and Alzheimer's disease patients, Newman-Keuls test for multiple comparisons.
(§1) 100 mg of post-mortem frontal cortex ground on ice are homogenised in 10 volumes of 10 mM HEPES pH 7.4 maintained on ice and oxygenated in the presence of […] sucrose and 0.1 mM EDTA and then mixed in a Teflon/glass tissue grinder at 4° C. in a homogenisation solution containing 25 mM HEPES pH 7.5, 1 mM EDTA, 50 μg/ml of leupeptin, 10 μg/ml of aprotinin, 2 μg/ml of soy trypsin inhibitor, 0.04 mM PMSF, a mixture of phosphatase inhibitor proteins, and 0.2% […].
The homogenate is centrifuged, firstly, at 1000 g and 4° C. for 10 minutes. […]
(In general: Immunoblotting shows a protein as a band on a membrane.)

Test [2] addresses T1, Aβ42-α7 nAChR complexes. In words: Dissociation of Aβ42-α7 nAChR complexes already present in frontal cortex synaptosomes of Alzheimer's disease patients (immunoprecipitation, Western blot). The format is binding. The procedure:
FIG. 3: Western blot illustrating the dissociation, caused by S 24795, of Aβ42-α7 nAChR complexes obtained post-mortem from frontal cortex synaptosomes of Alzheimer's disease patients or control subjects. The Aβ42-α7 nAChR complexes are incubated in the medium (Krebs-Ringer) on its own or in the presence of S 24795 (1, 10, 30 or 100 μM) for 10 minutes and then in the presence or absence of Aβ42 (100 nM).
FIG. 4: Quantification of the dissociation of the interaction of α7 nAChR receptors associated with Aβ42 in human frontal cortex synaptosomes obtained post-mortem from Alzheimer's disease patients and control subjects and incubated with S 24795 (from 1 to 100 μM) and then in the presence or absence of Aβ42 (100 nM). *: p<0.01 for controls and Alzheimer's disease patients, Newman-Keuls test for multiple comparisons.
as §1
The homogenate is centrifuged, firstly, at 1000 g and 4° C. for 10 minutes. The supernatant obtained in that first centrifugation is centrifuged for a second time at 15000 g for 30 minutes to obtain a sediment of synaptosomes.
The sediment of synaptosomes is washed twice by suspension in 10 ml of Krebs-Ringer solution, maintained on ice, comprising 25 mM HEPES pH 7.4, 118 mM NaCl, 4.8 mM KCl, 25 mM NaHCO3, 1.3 mM CaCl2, 1.2 mM MgSO4, 1.2 mM KH2PO4, 10 mM glucose, 100 μM ascorbic acid, 50 μg/ml of leupeptin, 10 μg/ml of aprotinin, 2 μg/ml of soy trypsin inhibitor, 0.04 mM PMSF and a mixture of phosphatase inhibitor proteins, aerated for 10 minutes using 95% O2/5% CO2 and then centrifuged again at 15000 g for 10 minutes at 4° C. The washed synaptosomes are then suspended in 1 ml of oxygenated Krebs-Ringer solution and the protein concentration of said synaptosome suspension is determined by the Bradford method.
The human cortex synaptosomes are incubated in an oxygenated Krebs-Ringer solution in the presence of the compound S 24795 at 37° C. for 30 minutes in a total incubation volume of 500 μl. The compound S 24795 is present in the reaction mixture at a concentration of 1 μM, 10 μM, 30 μM or 100 μM. Depending on the experiments being carried out, the synaptosomes are also incubated in the presence of 100 nM Aβ42 or in the presence of the vehicle. […]

The next test concerns α7 nAChR and NMDAR. In words: Functional recovery: 45Ca2+ entry into frontal cortex synaptosomes via α7 and NMDA receptors. The format is biochemical, human. The protocol: FIG. 5: Quantification of the entry of ^45Ca^2+ into human frontal cortex synaptosomes obtained post-mortem from Alzheimer's disease patients and from control subjects and treated with S 24795. The control brain slices are incubated in the presence of Aβ42 (1 μM)—or not—prior to the treatment with S 24795 (10 μM). Calcium entry is brought about either by α7 agonist (PNU282987) or by NMDA added to glycine.
The functional recovery experiments are carried out using brains according to I.2 obtained from patients according to I.1.
The functional recovery brought about by the treatment with S 24795 (10 μM) is evaluated with reference to the calcium influx via α7 and NMDA receptors. It was tested after 1 hour of treatment with S 24795 on control brains exposed to Aβ42 (30 minutes) and on brains of Alzheimer's disease patients. The treatments using Aβ42 (1 μM) and S 24795 (10 μM) are carried out on slices of cortex obtained from those brains. Synaptosomes are then prepared as described in I.4. In order to evaluate the Ca^2+ influxes via the α7 and NMDA receptors, the synaptosomes are incubated in the presence of ^45Ca^2+ (5 μM) for 5 minutes at 37° C. in Krebs-Ringer medium. The Ca^2+ fluxes are brought about for α7 selective α7nAChR receptor agonist, PNU282987 (0.1, 1 and 10 μM), and for the NMDAR receptors by the addition of NMDA (0.1, 1, 10 μM) and glycine (1 μM). The reaction is stopped by the addition of Krebs-Ringer (4° C.) containing EGTA but not containing calcium. After two washings, the synaptosomes are lysed by sonication in ethanol (95%) and the radioactivity is counted by liquid scintillation spectrometry. The specificity of the calcium influxes is checked by means of the addition of selective inhibitors of the α7 receptor (α-bungarotoxin) and of the NMDA receptor (AP-5).

T1 sequence (P36544 23-502, one chain of several): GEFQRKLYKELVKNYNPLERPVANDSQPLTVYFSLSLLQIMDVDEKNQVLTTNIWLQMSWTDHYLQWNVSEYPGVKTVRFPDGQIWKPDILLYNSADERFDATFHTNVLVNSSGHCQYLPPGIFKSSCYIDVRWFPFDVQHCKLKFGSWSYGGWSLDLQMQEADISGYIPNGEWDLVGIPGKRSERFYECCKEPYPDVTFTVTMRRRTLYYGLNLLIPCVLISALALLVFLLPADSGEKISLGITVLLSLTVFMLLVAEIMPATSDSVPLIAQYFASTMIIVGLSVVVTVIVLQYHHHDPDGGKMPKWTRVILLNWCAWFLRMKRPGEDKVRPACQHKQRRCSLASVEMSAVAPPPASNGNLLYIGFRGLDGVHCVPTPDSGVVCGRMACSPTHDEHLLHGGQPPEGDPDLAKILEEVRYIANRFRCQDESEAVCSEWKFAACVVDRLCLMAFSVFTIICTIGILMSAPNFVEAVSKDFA

Turning to “1-(4-bromophenyl)-2-(1-methyl-2-pyridiniumyl)-1-ethanone chloride or iodide [S 24795]”, the “reduction of the amount of Aβ42-α7 nAChR complexes formed” value at Aβ42-α7 nAChR complexes [1] came to 92%. In addition, the “reduction in the Aβ42-α7 nAChR complexes previously present in the diseased brain extracts” value at Aβ42-α7 nAChR complexes [2] (S 24795 1 μM, absence of exogenous Aβ peptides, Alzheimer's disease synaptosomes) is “about 22%”; at Aβ42-α7 nAChR complexes [2] (S 24795 10, 30 and 100 μM, absence of exogenous Aβ peptides, dose-dependent), “substantial”. For the same substance, the “reduction of non-dissociated Aβ42-α7 nAChR complexes” value on Aβ42-α7 nAChR complexes [2] (S 24795 at the highest concentration (100 μM), absence of exogenous Aβ peptides, Alzheimer's disease synaptosomes, p<0.01) was about 63%. Also, the “reduction in the amount of Aβ42-α7 nAChR complexes present in the diseased brains” value at Aβ42-α7 nAChR complexes [2] (synaptosomes from cortices of Alzheimer's disease patients, S 24795 30 μM, Aβ peptides added (FIG. 1)) is listed as “substantial reduction”. Also, in the test on α7 nAChR and NMDAR (after S 24795 10 μM, brains of Alzheimer's disease patients and of controls pretreated with Aβ (comparable levels)), the “Ca2+ entry level as % of the control values without Aβ” value is recorded as “about 65%”. The “increase in Ca2+ entry compared to the brains of untreated Alzheimer's disease patients” value in the test on α7 nAChR and NMDAR (brains of Alzheimer's disease patients, S 24795 10 μM for 1 hour) is listed as about 75%. Also, in the test on α7 nAChR and NMDAR (control brain slices exposed to Aβ42 (1 μM), then S 24795 10 μM for 1 hour), the “re-establishment of Ca2+ entry” value is recorded as “substantial re-establishment”.
